Consider 29 molecules from US8273767B2, “Bicyclic-substituted amines as histamine-3 receptor ligands” (Abbott Laboratories, priority 2002, dated 2012).

Structures are written as SMILES. Where a name gives a salt, the structure may show the parent alone.

Usually melting point stands for the temperature of the solid-liquid transition.

Take `C[C@@H]1CCCN1CCc1ccc2cc(Br)ccc2c1` (as salt: HCl) [Example 2, (2R)-1-[2-(6-bromo-2-naphthyl)ethyl]-2-methylpyrrolidine]: the melting point was in the range of 247.3 to 250.7 °C.

`C[C@@H]1CCCN1CCc1ccc2cc(C#N)ccc2c1` (as salt: hydrochloride) [Example 5, 6-{2-[(2R)-2-methyl-1-pyrrolidinyl]ethyl}-2-naphthonitrile] displayed a melting point of 187.4 to 188.6 °C.

Turning to `C[C@@H]1CCCN1Cc1ccc2cc(-c3ccc(C#N)cc3)ccc2c1` (as salt: hydrochloride) [Example 6, 4-(6-{[(2R)-2-methyl-1-pyrrolidinyl]methyl}-2-naphthyl)benzonitrile], the melting point was in the range of 212.6 to 213.6 °C.

`C[C@@H]1CCCN1CCc1ccc2cc(-c3ccc(F)cc3)ccc2n1` (as salt: hydrochloride) [Example 43, 6-(4-fluorophenyl)-2-{2-[(2R)-2-methyl-1-pyrrolidinyl]ethyl}quinoline] returned a melting point of 145 °C.

With `CC(=O)c1cccc(-c2ccc3nc(CCN4CCC[C@H]4C)ccc3c2)c1` (as salt: hydrochloride) [Example 45, 1-[3-(2-{2-[(2R)-2-methyl-1-pyrrolidinyl]ethyl}-6-quinolinyl)phenyl]ethanone], the melting point is 174 to 175 °C.

Take `COc1ccc(-c2ccc3nc(CCN4CCC[C@H]4C)ccc3c2)cc1` (as salt: hydrochloride) [Example 46, 6-(4-methoxyphenyl)-2-{2-[(2R)-2-methyl-1-pyrrolidinyl]ethyl}quinoline]: the melting point was 165 °C (dec.).

With `C[C@@H]1CCCN1CCc1ccc2cc(-c3ccc(C(F)(F)F)cc3)ccc2n1` (as salt: hydrochloride) [Example 47, 2-{2-[(2R)-2-methyl-1-pyrrolidinyl]ethyl}-6-[4-(trifluoromethyl)phenyl]quinoline], the melting point was 143 to 145 °C (dec.).

As to `C[C@@H]1CCCN1CCc1ccc2cc(-c3cc(F)cc(F)c3)ccc2n1` (as salt: hydrochloride) [Example 49, 6-(3,5-difluorophenyl)-2-{2-[(2R)-2-methyl-1-pyrrolidinyl]ethyl}quinoline], the melting point lay in the range of 164 to 165 °C.

Turning to `C[C@@H]1CCCN1CCc1ccc2cc(C(=O)c3cccc(F)c3)ccc2n1` (as salt: hydrochloride) [Example 50, (3-fluorophenyl)(2-{2-[(2R)-2-methyl-1-pyrrolidinyl]ethyl}-6-quinolinyl)methanone], the melting point was 162 to 164 °C (dec.).

In turn, `C[C@@H]1CCCN1CCc1ccc2cc(-c3cccnc3)ccc2n1` (as salt: hydrochloride) [Example 51, 2-{2-[(2R)-2-methyl-1-pyrrolidinyl]ethyl}-6-(3-pyridinyl)quinoline] gave a melting point of 205 to 207 °C.

`C[C@@H]1CCCN1CCc1ccc2cc(-c3ccncc3)ccc2n1` (as salt: hydrochloride) [Example 107, 2-[2-(2R-Methyl-pyrrolidin-1-yl)-ethyl]-6-pyridin-4-yl-quinoline]: the melting point fell in the range of 145 to 147 °C.

`C[C@@H]1CCCN1CCc1ccc2cc(-c3ccc(Cl)nc3Cl)ccc2n1` (as salt: hydrochloride) [Example 111, 6-(2,6-Dichloro-pyridin-3-yl)-2-[2-(2(R)-methyl-pyrrolidin-1-yl)-ethyl]-quinoline] registered a melting point of 105 to 107 °C.

Molecule `C[C@@H]1CCCN1CCc1ccc2cc(-c3cncnc3)ccc2n1` (as salt: hydrochloride) [Example 113, 2-[2-(2(R)-Methyl-pyrrolidin-1-yl)-ethyl]-6-pyrimidin-5-yl-quinoline] had a melting point of 160 to 162 °C.

`C[C@@H]1CCCN1CCc1ccc2cc(-c3ccc(Cl)cc3)ccc2n1` (as salt: hydrochloride) [Example 117, 6-(4-Chloro-phenyl)-2-[2-(2(R)-methyl-pyrrolidin-1-yl)-ethyl]-quinoline]: the melting point was in the range of 154 to 155 °C.

With `Cc1ccc(-c2ccc3nc(CCN4CCC[C@H]4C)ccc3c2)c(C)n1` (as salt: hydrochloride) [Example 118, 6-(2,6-Dimethyl-pyridin-3-yl)-2-[2-(2(R)-methyl-pyrrolidin-1-yl)-ethyl]-quinoline], the melting point was 176 to 177 °C.

`Cc1noc(C)c1-c1ccc2nc(CCN3CCC[C@H]3C)ccc2c1` (as salt: hydrochloride) [Example 120, 6-(3,5-Dimethyl-isoxazol-4-yl)-2-[2-(2(R)-methyl-pyrrolidin-1-yl)-ethyl]-quinoline] showed a melting point of 174 to 175 °C.

The molecule `COC(=O)c1ccc(-c2ccc3nc(CCN4CCC[C@H]4C)ccc3c2)cc1` (as salt: hydrochloride) [Example 121, 4-{2-[2-(2(R)-Methyl-pyrrolidin-1-yl)-ethyl]-quinolin-6-yl}-benzoic acid methyl ester] gave a melting point of 172 to 174 °C.

`CSc1ccc(-c2ccc3nc(CCN4CCC[C@H]4C)ccc3c2)cc1` (as salt: hydrochloride) [Example 122, 2-[2-(2(R)-Methyl-pyrrolidin-1-yl)-ethyl]-6-(4-methylsulfanyl-phenyl)-quinoline] yielded a melting point of 158 to 159 °C.

With `C[C@@H]1CCCN1CCc1ccc2cc(-c3ccc(F)nc3)ccc2n1` (as salt: hydrochloride) [Example 123, 6-(6-Fluoro-pyridin-3-yl)-2-[2-(2(R)-methyl-pyrrolidin-1-yl)-ethyl]-quinoline], the melting point was in the range of 162 to 163 °C.

As to `C[C@@H]1CCCN1CCc1ccc2cc(-c3ccc(C#N)cc3)ccc2c1` (as salt: tartrate) [Example 1, 4-(6-{2-[(2R)-2-methyl-1-pyrrolidinyl]ethyl}-2-naphthyl)benzonitrile], the melting point fell in the range of 157.4 to 158.1 °C.

`C[C@@H]1CCCN1CCc1ccc2cc(-c3ccc(C#N)cc3)ccc2n1` (as salt: tartrate) [Example 42, 4-(2-{2-[(2R)-2-methyl-1-pyrrolidinyl]ethyl}-6-quinolinyl)benzonitrile] gave a melting point of 164 °C.

Consider `C[C@@H]1CCCN1CCc1ccc2cc(-c3cccc(C#N)c3)ccc2n1` (as salt: tartrate) [Example 44, 3-(2-{2-[(2R)-2-methyl-1-pyrrolidinyl]ethyl}-6-quinolinyl)benzonitrile], for which the melting point was 172 °C.

`COc1ccc(-c2ccc3nc(CCN4CCC[C@H]4C)ccc3c2)cn1` (as salt: tartrate) [Example 108, 6-(6-Methoxy-pyridin-3-yl)-2-[2(R)-(2-methyl-pyrrolidin-1-yl)-ethyl]-quinoline]: the melting point fell in the range of 132 to 134 °C.

In the case of `C[C@@H]1CCCN1CCc1ccc2cc(-c3ccc(F)nc3F)ccc2n1` (as salt: tartrate) [Example 109, 6-(2,6-Difluoro-pyridin-3-yl)-2-[2-(2R-methyl-pyrrolidin-1-yl)-ethyl]-quinoline], the melting point lay in the range of 142 to 143 °C.

Consider `C[C@@H]1CCCN1CCc1ccc2cc(-c3ccc(Cl)nc3)ccc2n1` (as salt: tartrate) [Example 110, 6-(6-Chloro-pyridin-3-yl)-2-[2-(2(R)-methyl-pyrrolidin-1-yl)-ethyl]-quinoline], for which the melting point lay in the range of 167 to 168 °C.

Molecule `C[C@@H]1CCCN1CCc1ccc2cc(-c3ccc(N(C)C)cc3)ccc2n1` (as salt: tartrate) [Example 115, Dimethyl-(4-{2-[2-(2(R)-methyl-pyrrolidin-1-yl)-ethyl]-quinolin-6-yl}-phenyl)-amine] came in with a melting point of 155 to 156 °C.

For `CC(=O)c1ccc(-c2ccc3nc(CCN4CCC[C@H]4C)ccc3c2)cc1` (as salt: tartrate) [Example 116, 1-(4-{2-[2-(2(R)-Methyl-pyrrolidin-1-yl)-ethyl]-quinolin-6-yl}-phenyl)-ethanone], the melting point was 152 to 154 °C.

With `C[C@@H]1CCCN1CCc1ccc2cc(-c3cncc(C#N)c3)ccc2n1` (as salt: tartrate) [Example 124, 5-{2-[2-(2(R)-Methyl-pyrrolidin-1-yl)-ethyl]-quinolin-6-yl}-nicotinonitrile], the melting point fell in the range of 100 to 102 °C.

In the case of `C[C@@H]1CCCN1CCc1ccc2cc(-c3cccc(C#N)c3)ccc2c1` [Example 7, 3-(6-{2-[(2R)-2-methyl-1-pyrrolidinyl]ethyl}-2-naphthyl)benzonitrile], the melting point was in the range of 228.5 to 231.6 °C.
